Results published in patent US10227357B2, “Compounds and methods for kinase modulation, and indications therefor” (Plexxikon Inc., priority 2012, dated 2019).

Assays:
c-kit kinase = molecular target: T1, c-kit kinase (Homo sapiens, UniProt P10721); assay: c-Kit biochemical assay, AlphaScreen, 10 μM ATP; conditions: c-kit biochemical inhibitory activity; read-out: Biochemical activity (IC50 μM) Kit
T1 construct: The c-kit (or kinase domain thereof) is an active kinase in AlphaScreen; poly-Histidine tag (in-house protein only) (cleaved yes); host or cells: E. coli BL21(DE3)RIL, co-expressed with PTP1B
How it was run: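 His-tagged c-Kit expressed in E. coli with co-expressed PTP1B (dephosphorylated), tag removed; 0.1 ng per reaction with biotinylated-peptide substrate in 50 mM HEPES pH 7.2, 5 mM MgCl2, 5 mM MnCl2, 5% DMSO, 10 μM ATP, 1 h at room temperature. Phosphorylation detected by AlphaScreen (streptavidin donor, PY20 acceptor beads); IC50 from 8-point 1:3 dilution series.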

c-kit mutant D816V = molecular target: T2, c-kit mutant D816V (Homo sapiens, UniProt P10721, D816V/DEL694-753); assay: c-Kit mutant D816V biochemical assay, AlphaScreen; conditions: c-kit D816V biochemical inhibitory activity; read-out: Biochemical activity (IC50 μM) Kit D816V
T2 construct: residues 551-934, kinase insertion domain residues 694-753 deleted; 6x-histidine (N); made in house; host or cells: E. coli Arctic Express (DE3) RIL (Stratagene)
How it was run: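 Eight-point, threefold compound series incubated 30 min at room temperature with E. coli-produced D816V kinase, 10 μM ATP, Mg2+/Mn2+ HEPES buffer pH 7.2 and 5% DMSO. After EDTA stop, streptavidin and anti-phosphotyrosine (PY20) AlphaScreen beads gave the read-out, and IC50 was fitted from the concentration–signal curve.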

T1 sequence (P10721 26-976): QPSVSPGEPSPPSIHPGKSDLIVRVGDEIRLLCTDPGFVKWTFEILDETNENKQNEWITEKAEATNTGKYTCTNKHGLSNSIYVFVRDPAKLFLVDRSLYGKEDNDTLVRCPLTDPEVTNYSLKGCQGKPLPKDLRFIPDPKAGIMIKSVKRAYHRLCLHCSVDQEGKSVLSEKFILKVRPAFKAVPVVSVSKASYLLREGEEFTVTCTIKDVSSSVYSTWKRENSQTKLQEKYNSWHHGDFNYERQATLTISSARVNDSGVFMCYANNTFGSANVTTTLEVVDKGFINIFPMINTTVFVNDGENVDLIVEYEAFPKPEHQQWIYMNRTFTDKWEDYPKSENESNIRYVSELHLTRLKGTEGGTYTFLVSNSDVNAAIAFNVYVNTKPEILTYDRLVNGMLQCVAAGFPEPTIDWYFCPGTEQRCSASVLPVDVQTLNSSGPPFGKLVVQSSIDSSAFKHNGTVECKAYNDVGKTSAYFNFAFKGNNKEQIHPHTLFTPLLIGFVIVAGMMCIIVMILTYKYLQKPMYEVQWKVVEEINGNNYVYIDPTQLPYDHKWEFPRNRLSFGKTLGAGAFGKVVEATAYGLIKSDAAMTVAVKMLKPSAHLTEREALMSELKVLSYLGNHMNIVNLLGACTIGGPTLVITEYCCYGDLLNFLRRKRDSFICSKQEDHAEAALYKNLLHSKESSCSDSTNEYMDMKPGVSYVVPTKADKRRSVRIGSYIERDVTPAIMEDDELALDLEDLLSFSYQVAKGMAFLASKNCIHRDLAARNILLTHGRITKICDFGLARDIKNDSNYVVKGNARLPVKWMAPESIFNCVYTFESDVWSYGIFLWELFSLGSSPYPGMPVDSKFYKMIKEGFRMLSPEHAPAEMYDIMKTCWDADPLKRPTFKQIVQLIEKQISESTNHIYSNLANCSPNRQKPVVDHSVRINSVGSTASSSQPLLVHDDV
T2 sequence (P10721 with tags, fused parts or gaps DEL694-753/D816V): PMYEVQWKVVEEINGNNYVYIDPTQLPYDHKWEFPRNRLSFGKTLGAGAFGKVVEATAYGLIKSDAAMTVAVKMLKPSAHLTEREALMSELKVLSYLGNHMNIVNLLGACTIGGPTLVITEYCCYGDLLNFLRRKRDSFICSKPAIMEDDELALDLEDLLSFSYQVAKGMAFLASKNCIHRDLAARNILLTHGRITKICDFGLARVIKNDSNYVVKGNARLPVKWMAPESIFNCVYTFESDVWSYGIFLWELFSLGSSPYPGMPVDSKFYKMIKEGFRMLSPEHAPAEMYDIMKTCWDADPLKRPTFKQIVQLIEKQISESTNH

CS(=O)(=O)Nc1ccc(-c2ncnc3[nH]c(-c4ccc(F)cc4)cc23)cc1F [P-0399, N-[2-fluoro-4-[6-(4-fluorophenyl)-7H-pyrrolo[2,3-d]pyrimidin-4-yl]phenyl]methanesulfonamide]
IC50 (c-kit kinase): 0.0001 to 1 µM
IC50 (c-kit mutant D816V): 0.0001 to 1 µM

Fc1ccc(-c2cc3c(N4CCN(c5nc6ccccc6[nH]5)CC4)ncnc3[nH]2)cc1 [P-0011, 4-[4-(1H-benzimidazol-2-yl)piperazin-1-yl]-6-(4-fluorophenyl)-7H-pyrrolo[2,3-d]pyrimidine]
IC50 (c-kit kinase): 10 to 200 µM
IC50 (c-kit mutant D816V): 0.0001 to 1 µM

Cc1cc2c(-c3ccc(NS(=O)(=O)c4ccc5c(c4)OCO5)cc3)ncnc2[nH]1 [P-0294, N-[4-(6-methyl-7H-pyrrolo[2,3-d]pyrimidin-4-yl)phenyl]-1,3-benzodioxole-5-sulfonamide]
IC50 (c-kit kinase): 10 to 200 µM
IC50 (c-kit mutant D816V): 0.0001 to 1 µM

Cc1cc2c(-c3ccc(NS(=O)(=O)c4cccc(Cl)c4F)c(F)c3)ncnc2[nH]1 [P-0351, 3-chloro-2-fluoro-N-[2-fluoro-4-(6-methyl-7H-pyrrolo[2,3-d]pyrimidin-4-yl)phenyl]benzenesulfonamide]
IC50 (c-kit kinase): 1 to 10 µM
IC50 (c-kit mutant D816V): 10 to 200 µM

CN(C)c1ccc(-c2cc3c(N4CCN(C(=O)Nc5ccc(OC(F)(F)F)cc5)CC4)ncnc3[nH]2)cn1 [P-0114, 4-[6-[6-(dimethylamino)-3-pyridyl]-7H-pyrrolo[2,3-d]pyrimidin-4-yl]-N-[4-(trifluoromethoxy)phenyl]piperazine-1-carboxamide]
IC50 (c-kit kinase): 0.0001 to 1 µM
IC50 (c-kit mutant D816V): 1 to 10 µM

Cn1cc(-c2cc3c(N4CCC(NS(=O)(=O)c5ccc6c(c5)CCC6)CC4)ncnc3[nH]2)cn1 [P-0452, N-[1-[6-(1-methylpyrazol-4-yl)-7H-pyrrolo[2,3-d]pyrimidin-4-yl]-4-piperidyl]indane-5-sulfonamide]
IC50 (c-kit kinase): 1 to 10 µM
IC50 (c-kit mutant D816V): 0.0001 to 1 µM

COc1ccc(NC(=O)N2CCN(c3ncnc4[nH]ccc34)CC2)cc1 [P-0235, N-(4-methoxyphenyl)-4-(7H-pyrrolo[2,3-d]pyrimidin-4-yl)piperazine-1-carboxamide]
IC50 (c-kit kinase): 10 to 200 µM
IC50 (c-kit mutant D816V): 1 to 10 µM

C[C@H](NC(=O)N1CCN(c2ncnc3cc(-c4ccc(F)cc4)sc23)CC1(C)C)c1cccc(Cl)c1 [P-0580, N-[(1S)-1-(3-chlorophenyl)ethyl]-4-[6-(4-fluorophenyl)thieno[3,2-d]pyrimidin-4-yl]-2,2-dimethyl-piperazine-1-carboxamide]
IC50 (c-kit kinase): 10 to 200 µM
IC50 (c-kit mutant D816V): 0.0001 to 1 µM

O=C(Nc1cccc(C(F)(F)F)c1)N1CCN(c2ncnc3[nH]c(-c4cccnc4)cc23)CC1 [P-0223, 4-[6-(3-pyridyl)-7H-pyrrolo[2,3-d]pyrimidin-4-yl]-N-[3-(trifluoromethyl)phenyl]piperazine-1-carboxamide]
IC50 (c-kit kinase): 0.0001 to 1 µM
IC50 (c-kit mutant D816V): 0.0001 to 1 µM

COc1ccc(S(=O)(=O)Nc2ccc(-c3ncnc4[nH]c(C)cc34)c(F)c2)cc1 [P-0363, N-[3-fluoro-4-(6-methyl-7H-pyrrolo[2,3-d]pyrimidin-4-yl)phenyl]-4-methoxy-benzenesulfonamide]
IC50 (c-kit kinase): 1 to 10 µM
IC50 (c-kit mutant D816V): 1 to 10 µM

Cc1nn(C)cc1-c1cc2ncnc(N3CCN(C(=O)N[C@H](C)c4ccc(F)cc4)[C@H](C)C3)c2s1 [P-0609, (2R)-4-[6-(1,3-dimethylpyrazol-4-yl)thieno[3,2-d]pyrimidin-4-yl]-N-[(1R)-1-(4-fluorophenyl)ethyl]-2-methyl-piperazine-1-carboxamide]
IC50 (c-kit kinase): 1 to 10 µM
IC50 (c-kit mutant D816V): 0.0001 to 1 µM

NC(=O)c1cccc(-c2cc3c(N4CCN(C(=O)NCc5ccc(F)cc5)CC4)ncnc3[nH]2)c1 [P-0108, 4-[6-(3-carbamoylphenyl)-7H-pyrrolo[2,3-d]pyrimidin-4-yl]-N-[(4-fluorophenyl)methyl]piperazine-1-carboxamide]
IC50 (c-kit kinase): 1 to 10 µM
IC50 (c-kit mutant D816V): 0.0001 to 1 µM

Cc1n[nH]c2ncnc(-c3ccc(NS(=O)(=O)c4ccc(C(F)(F)F)cc4)cc3)c12 [P-0438, N-[4-(3-methyl-1H-pyrazolo[3,4-d]pyrimidin-4-yl)phenyl]-4-(trifluoromethyl)benzenesulfonamide]
IC50 (c-kit kinase): 1 to 10 µM
IC50 (c-kit mutant D816V): 0.0001 to 1 µM

C[C@H](NC(=O)N1CCN(c2ncnc3[nH]c(-c4cnn(C)c4)cc23)CC1)c1ccc(F)cc1 [P-0094, N-[(1S)-1-(4-fluorophenyl)ethyl]-4-[6-(1-methylpyrazol-4-yl)-7H-pyrrolo[2,3-d]pyrimidin-4-yl]piperazine-1-carboxamide]
IC50 (c-kit kinase): 1 to 10 µM
IC50 (c-kit mutant D816V): 0.0001 to 1 µM

COc1ccc(NC(=O)NC2CCN(c3ncnc4[nH]ccc34)CC2)cc1 [P-0543, 1-(4-methoxyphenyl)-3-[1-(7H-pyrrolo[2,3-d]pyrimidin-4-yl)-4-piperidyl]urea]
IC50 (c-kit kinase): 10 to 200 µM
IC50 (c-kit mutant D816V): 10 to 200 µM

O=C(NCc1cncc(F)c1)N1CCN(c2ncnc3[nH]c(-c4ccc(F)cc4)cc23)CC1 [P-0131, 4-[6-(4-fluorophenyl)-7H-pyrrolo[2,3-d]pyrimidin-4-yl]-N-[(5-fluoro-3-pyridyl)methyl]piperazine-1-carboxamide]
IC50 (c-kit kinase): 1 to 10 µM
IC50 (c-kit mutant D816V): 1 to 10 µM

Cc1nn(C)cc1-c1cc2ncnc(N3CCN(C(=O)NCc4ccc(F)cc4)CC3)c2s1 [P-0619, 4-[6-(1,3-dimethylpyrazol-4-yl)thieno[3,2-d]pyrimidin-4-yl]-N-[(4-fluorophenyl)methyl]piperazine-1-carboxamide]
IC50 (c-kit kinase): 1 to 10 µM
IC50 (c-kit mutant D816V): 0.0001 to 1 µM

O=C(C1CC1)N1CC=C(c2cc3ncnc(-c4ccc(NS(=O)(=O)C5CC5)cc4)c3s2)CC1 [P-0571, N-[4-[6-[1-(cyclopropanecarbonyl)-3,6-dihydro-2H-pyridin-4-yl]thieno[3,2-d]pyrimidin-4-yl]phenyl]cyclopropanesulfonamide]
IC50 (c-kit kinase): 0.0001 to 1 µM
IC50 (c-kit mutant D816V): 0.0001 to 1 µM

Cc1cc2ncnc(-c3ccc(NS(C)(=O)=O)cc3)c2s1 [P-0622, N-[4-(6-methylthieno[3,2-d]pyrimidin-4-yl)phenyl]methanesulfonamide]
IC50 (c-kit kinase): 10 to 200 µM
IC50 (c-kit mutant D816V): 1 to 10 µM

C[C@H](NC(=O)N1CCN(c2ncnc3[nH]c(-c4ccc(C#N)cc4)cc23)CC1)c1cccc(Cl)c1 [P-0697, N-[(1S)-1-(3-chlorophenyl)ethyl]-4-[6-(4-cyanophenyl)-7H-pyrrolo[2,3-d]pyrimidin-4-yl]piperazine-1-carboxamide]
IC50 (c-kit kinase): 1 to 10 µM
IC50 (c-kit mutant D816V): 0.0001 to 1 µM

Cn1cc(-c2cc3ncnc(C4=CC(C)(C)NC(C)(C)C4)c3s2)cn1 [P-0617, 6-(1-methylpyrazol-4-yl)-4-(2,2,6,6-tetramethyl-1,3-dihydropyridin-4-yl)thieno[3,2-d]pyrimidine]
IC50 (c-kit kinase): 10 to 200 µM
IC50 (c-kit mutant D816V): 10 to 200 µM

Cc1cc2c(-c3ccc(NS(=O)(=O)c4ccc5c(c4)CCC5)cc3)ncnc2[nH]1 [P-0302, N-[4-(6-methyl-7H-pyrrolo[2,3-d]pyrimidin-4-yl)phenyl]indane-5-sulfonamide]
IC50 (c-kit kinase): 10 to 200 µM
IC50 (c-kit mutant D816V): 0.0001 to 1 µM

CS(=O)(=O)Nc1ccc(-c2ncnc3[nH]c(-c4ccc(F)cc4)cc23)c(F)c1F [P-0353, N-[2,3-difluoro-4-[6-(4-fluorophenyl)-7H-pyrrolo[2,3-d]pyrimidin-4-yl]phenyl]methanesulfonamide]
IC50 (c-kit kinase): 1 to 10 µM
IC50 (c-kit mutant D816V): 0.0001 to 1 µM

CCc1ccc(S(=O)(=O)Nc2ccc(-c3ncnc4[nH]c(C)cc34)c(F)c2)cc1 [P-0292, 4-ethyl-N-[3-fluoro-4-(6-methyl-7H-pyrrolo[2,3-d]pyrimidin-4-yl)phenyl]benzenesulfonamide]
IC50 (c-kit kinase): 1 to 10 µM
IC50 (c-kit mutant D816V): 0.0001 to 1 µM

Cc1cc2c(-c3ccc(NS(=O)(=O)c4cnn(C(F)F)c4)cc3)ncnc2[nH]1 [P-0322, 1-(difluoromethyl)-N-[4-(6-methyl-7H-pyrrolo[2,3-d]pyrimidin-4-yl)phenyl]pyrazole-4-sulfonamide]
IC50 (c-kit kinase): 10 to 200 µM
IC50 (c-kit mutant D816V): 1 to 10 µM

C[C@@H]1CN(c2ncnc3[nH]c(-c4ccncc4)cc23)CCN1C(=O)Nc1ccc(Cl)cc1 [P-0065, (2R)-N-(4-chlorophenyl)-2-methyl-4-[6-(4-pyridyl)-7H-pyrrolo[2,3-d]pyrimidin-4-yl]piperazine-1-carboxamide]
IC50 (c-kit kinase): 0.0001 to 1 µM
IC50 (c-kit mutant D816V): 0.0001 to 1 µM

CS(=O)(=O)Nc1ccc(-c2ncnc3cc4c(cc23)OCCO4)c(F)c1 [P-0266, N-[4-(7,8-dihydro-[1,4]dioxino[2,3-g]quinazolin-4-yl)-3-fluoro-phenyl]methanesulfonamide]
IC50 (c-kit kinase): 1 to 10 µM
IC50 (c-kit mutant D816V): 1 to 10 µM

Cc1cc2c(-c3ccc(NS(=O)(=O)c4ccc(F)cc4)cc3F)ncnc2[nH]1 [P-0362, 4-fluoro-N-[3-fluoro-4-(6-methyl-7H-pyrrolo[2,3-d]pyrimidin-4-yl)phenyl]benzenesulfonamide]
IC50 (c-kit kinase): 1 to 10 µM
IC50 (c-kit mutant D816V): 0.0001 to 1 µM

NS(=O)(=O)c1cccc(-c2cc3c(N4CCN(C(=O)NCc5ccc(F)cc5)CC4)ncnc3[nH]2)c1 [P-0105, N-[(4-fluorophenyl)methyl]-4-[6-(3-sulfamoylphenyl)-7H-pyrrolo[2,3-d]pyrimidin-4-yl]piperazine-1-carboxamide]
IC50 (c-kit kinase): 1 to 10 µM
IC50 (c-kit mutant D816V): 0.0001 to 1 µM

CNC(=O)c1cccc(-c2cc3c(N4CCN(C(=O)Nc5ccc(OC(F)(F)F)cc5)CC4)ncnc3[nH]2)c1 [P-0116, 4-[6-[3-(methylcarbamoyl)phenyl]-7H-pyrrolo[2,3-d]pyrimidin-4-yl]-N-[4-(trifluoromethoxy)phenyl]piperazine-1-carboxamide]
IC50 (c-kit kinase): 0.0001 to 1 µM
IC50 (c-kit mutant D816V): 10 to 200 µM

Nc1ccc(-c2ncnc3[nH]c(-c4ccc(F)cc4)cc23)cc1 [P-0416, 4-[6-(4-fluorophenyl)-7H-pyrrolo[2,3-d]pyrimidin-4-yl]aniline]
IC50 (c-kit kinase): 0.0001 to 1 µM
IC50 (c-kit mutant D816V): 0.0001 to 1 µM
